From patent publication US12011442B2, “Solid-state forms of Abemaciclib, their use and preparation” (MACFARLAN SMITH LIMITED, priority 2018, dated 2024)

Key:
Type in all cases: physicochemical
[1] = Solid-state stability of the crystalline solvate (observation); settings: desolvates on exposure to air
Description: A variable methanol solvate of ABC is produced by dissolving ABC in warm (55° C.) methanol (about 200 mg/mL) and then cooling (−5° C.) to force precipitation of a white powder. The resulting powder is examined by XRPD while still wet (FIG. 1, top pattern). Single crystals are grown by slow evaporation of methanol into an antisolvent (preferably ethyl acetate) or by slowly cooling a saturated solution from 50° C. to 0° C. over the course of several hours, and not exposed to air, to obviate evaporation of the solvate and the collapse of the crystalline lattice. Single crystal X-ray diffraction (SCXRD) data is undertaken at 100° K to improve diffraction quality as well as prevent desolvation. […] The single crystal is determined to be Form I of variable methanol solvate of ABC (FIG. 2) having about 2.5-3 molecules of methanol, preferably about 2.75 molecules of methanol. Form I of variable methanol solvate of ABC is unstable.

[2] = Dynamic vapor sorption (DVS) / sorption isotherm
[3] = Thermogravimetric analysis (TGA), onset of decomposition; settings: heating rate 10.0° C./min, nitrogen; FIG. 6
Description: Analysis—TGA (Thermo Gravimetric Analysis) TGA measurements are recorded using TA Q500 instrument. The samples are weighed in aluminum pans. TGA investigations are performed at a heating rate of 10.0° C./min over a temperature range of 30-350° C., purging with nitrogen at a flow rate of 60 mL/min.

| stability of the solid-state form [1] | H2O absorbed by weight (DVS) ([2]; between 0-90% relative humidity (RH), FIG. 7) | drop in weight during desorption ([2]; desorption at 20% RH, consistent with loss of a molecule of water) | H2O lost in one desorption step (sorption isotherm) ([2]; desorption between 30-20% RH, FIG. 8) [%] | transformation from Form II anhydrous ABC to Form III of hydrate of ABC ([2]; humidity sorption/desorption) | onset of decomposition (TGA) [3] | Compound |
| --- | --- | --- | --- | --- | --- | --- |
| unstable | – | – | – | – | – | CCN1CCN(Cc2ccc(Nc3ncc(F)c(-c4cc(F)c5nc(C)n(C(C)C)c5c4)n3)nc2)CC1 |
| – | about 8% | about 4% | 4 | reversible | about 320 °C | CCN1CCN(Cc2ccc(Nc3ncc(F)c(-c4cc(F)c5nc(C)n(C(C)C)c5c4)n3)nc2)CC1 [Form II anhydrous ABC] |
